Measurements as given in patent US7304174B2, “CaSR antagonist” (Japan Tobacco Inc., priority 2003, dated 2007).

Target: T1, human calcium receptor (Homo sapiens, UniProt P41180)
T1 construct: expressed in transfected cells; host or cells: cell strain derived from rat adrenal, co-transformed with luciferase cDNA
T1 sequence (P41180 20-1078): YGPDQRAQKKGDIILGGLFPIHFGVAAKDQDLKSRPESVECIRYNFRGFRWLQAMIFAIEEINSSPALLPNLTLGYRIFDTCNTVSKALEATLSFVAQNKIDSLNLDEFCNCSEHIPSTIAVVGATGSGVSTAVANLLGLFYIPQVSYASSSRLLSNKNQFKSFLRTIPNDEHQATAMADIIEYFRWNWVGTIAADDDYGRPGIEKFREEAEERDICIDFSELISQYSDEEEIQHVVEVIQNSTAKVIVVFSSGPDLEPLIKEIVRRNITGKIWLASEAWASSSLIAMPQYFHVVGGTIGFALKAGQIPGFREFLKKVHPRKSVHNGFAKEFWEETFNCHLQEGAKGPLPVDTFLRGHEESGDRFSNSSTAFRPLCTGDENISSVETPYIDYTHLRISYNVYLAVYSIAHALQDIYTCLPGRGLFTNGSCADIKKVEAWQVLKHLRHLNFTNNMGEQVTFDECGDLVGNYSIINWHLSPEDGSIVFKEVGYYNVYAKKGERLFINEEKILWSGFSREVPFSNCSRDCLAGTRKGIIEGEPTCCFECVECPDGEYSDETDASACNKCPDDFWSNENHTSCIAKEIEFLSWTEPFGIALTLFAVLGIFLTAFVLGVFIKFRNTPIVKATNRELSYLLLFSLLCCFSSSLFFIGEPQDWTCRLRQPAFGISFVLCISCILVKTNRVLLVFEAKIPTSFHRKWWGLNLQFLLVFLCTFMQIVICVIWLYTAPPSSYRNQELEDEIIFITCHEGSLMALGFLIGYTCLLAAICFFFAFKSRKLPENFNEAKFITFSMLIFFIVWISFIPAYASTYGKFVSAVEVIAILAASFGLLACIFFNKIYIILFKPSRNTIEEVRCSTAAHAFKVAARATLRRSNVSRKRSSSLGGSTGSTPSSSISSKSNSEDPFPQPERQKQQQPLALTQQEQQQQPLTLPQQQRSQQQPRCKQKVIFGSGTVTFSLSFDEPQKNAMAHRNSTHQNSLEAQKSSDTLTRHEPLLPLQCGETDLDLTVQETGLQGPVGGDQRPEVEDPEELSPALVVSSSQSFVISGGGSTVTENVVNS
Assay: Evaluation of antagonistic action on calcium receptor using reporter gene (luciferase)
Format: cell-based
Conditions: transformed rat adrenal derived cells, 5 mM calcium chloride, culture 4 hrs, luciferase activity; read-out: Reporter gene assay (IC50, concentration showing 50% inhibitory rate)
In short: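 Rat adrenal-derived cells transfected with luciferase and human calcium receptor cDNA, in F12 with 0.5% dialyzed horse serum and 0.25% dialyzed fetal bovine serum. Luciferase luminescence gave % inhibition vs control and blank; IC50 at 50% inhibition.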

Row | IC50 [nM] | Compound
1 | 13 | Cc1ccc(CC(C)(C)NC[C@@H](O)CO[C@H](C)c2ccccc2-c2ccc(C(=O)O)c(C(C)(C)C)c2)cc1F [Example 1-98, 2′-[1-[(2R)-3-[[1-(3-fluoro-4-methylphenyl)-2-methylpropan-2-yl]amino]-2-hydroxypropoxy]ethyl]-3-t-butylbiphenyl-4-carboxylic acid]
2 | 3 | Cc1ccc(CC(C)(C)NC[C@@H](O)CO[C@H](C)c2ccccc2-c2ccc(C(=O)O)c(OC(F)(F)F)c2)cc1F [Example 1-103, 2′-[1-[(2R)-3-[[1-(3-fluoro-4-methylphenyl)-2-methylpropan-2-yl]amino]-2-hydroxypropoxy]ethyl]-3-(trifluoromethoxy)biphenyl-4-carboxylic acid]
3 | 9 | Cc1cc(-c2ccccc2[C@@H](C)OC[C@H](O)CNC(C)(C)Cc2ccc(Cl)c(F)c2)ccc1C(=O)O [Example 1-105]
4 | 14 | Cc1ccc(CC(C)(C)NC[C@@H](O)CO[C@H](C)c2ccccc2-c2ccc(C(=O)O)c(C)c2)cc1F [Example 1-108]
5 | 17 | Cc1ccc(CC(C)(C)NC[C@@H](O)COC(C)c2ccccc2Oc2ccc(C(=O)O)cc2)cc1F (stereo partly drawn) [Example 2-7, 4-[2-[1-[(2R)-3-[[1-(3-fluoro-4-methylphenyl)-2-methylpropan-2-yl]amino]-2-hydroxypropoxy]ethyl]phenoxy]benzoic acid]
6 | 54 | Cc1ccc(CC(C)(C)NC[C@@H](O)COC(C)c2ccccc2Oc2cccc(C(=O)O)c2)cc1F (stereo partly drawn) [Example 2-8, 3-[2-[1-[(2R)-3-[[1-(3-fluoro-4-methylphenyl)-2-methylpropan-2-yl]amino]-2-hydroxypropoxy]ethyl]phenoxy]benzoic acid]
7 | 21 | Cc1ccc(CC(C)(C)NC[C@@H](O)COC(C)c2ccccc2C=Cc2ccc(C(=O)O)cc2)cc1F (stereo partly drawn) [Example 2-11, 4-[2-[2-[1-[(2R)-3-[[1-(3-fluoro-4-methylphenyl)-2-methylpropan-2-yl]amino]-2-hydroxypropoxy]ethyl]phenyl]vinyl]benzoic acid]
8 | 5 | Cc1ccc(CC(C)(C)NC[C@@H](O)COC(C)c2ccccc2Oc2c(C)cc(C(=O)O)cc2C)cc1F (stereo partly drawn) [Example 2-12, 4-[2-[1-[(2R)-3-[[1-(3-fluoro-4-methylphenyl)-2-methylpropan-2-yl]amino]-2-hydroxypropoxy]ethyl]phenoxy]-3,5-dimethylbenzoic acid]

Continued, molecule first:

Row | Compound | IC50 [nM]
9 | Cc1cc(-c2ccccc2[C@@H](C)OC[C@H](O)CNC(C)(C)Cc2cc(F)cc(Cl)c2)ccc1C(=O)O [Example 1-93] | 27
10 | Cc1cc(-c2ccccc2[C@@H](C)OC[C@H](O)CNC(C)(C)Cc2cc(C(F)(F)F)cc(C(F)(F)F)c2)ccc1C(=O)O [Example 1-94, 2′-[1-[(2R)-3-[[1-(3,5-ditrifluoromethylphenyl)-2-methylpropan-2-yl]amino]-2-hydroxypropoxy]ethyl]-3-methylbiphenyl-4-carboxylic acid] | 28
11 | Cc1cc(-c2ccccc2[C@@H](C)OC[C@H](O)CNC(C)(C)Cc2ccc(Cl)c(C(F)(F)F)c2)ccc1C(=O)O [Example 1-97, 2′-[1-[(2R)-3-[[1-(4-chloro-3-trifluoromethylphenyl)-2-methylpropan-2-yl]amino]-2-hydroxypropoxy]ethyl]-3-methylbiphenyl-4-carboxylic acid] | 106
12 | C[C@@H](OC[C@H](O)CNC(C)(C)Cc1ccc(Cl)cc1F)c1ccccc1-c1ccc(C(=O)O)c(C(C)(C)C)c1 [Example 1-99, 2′-[1-[(2R)-3-[[1-(4-chloro-2-fluorophenyl)-2-methylpropan-2-yl]amino]-2-hydroxypropoxy]ethyl]-3-t-butylbiphenyl-4-carboxylic acid] | 23
13 | C[C@@H](OC[C@H](O)CNC(C)(C)Cc1ccc(Cl)c(F)c1)c1ccccc1-c1ccc(C(=O)O)c(C(C)(C)C)c1 [Example 1-100, 2′-[1-[(2R)-3-[[1-(4-chloro-3-fluorophenyl)-2-methylpropan-2-yl]amino]-2-hydroxypropoxy]ethyl]-3-t-butylbiphenyl-4-carboxylic acid] | 17
14 | Cc1ccc(CC(C)(C)NC[C@@H](O)CO[C@H](C)c2ccccc2-c2ccc(C(=O)O)c(N3CCOCC3)c2)cc1F [Example 1-102, 2′-[1-[(2R)-3-[[1-(3-fluoro-4-methylphenyl)-2-methylpropan-2-yl]amino]-2-hydroxypropoxy]ethyl]-3-morpholinobiphenyl-4-carboxylic acid] | 14
15 | Cc1cc(-c2ccccc2[C@@H](C)OC[C@H](O)CNC(C)(C)Cc2ccc(C)c(C(F)(F)F)c2)ccc1C(=O)O [Example 1-104, 2′-[1-[(2R)-3-[[1-(3-trifluoromethyl-4-methylphenyl)-2-methylpropan-2-yl]amino]-2-hydroxypropoxy]ethyl]-3-methylbiphenyl-4-carboxylic acid] | 28
16 | C[C@@H](OC[C@H](O)CNC(C)(C)Cc1ccc(Cl)c(F)c1)c1ccccc1-c1ccc(C(=O)O)c(CO)c1 [Example 1-106, 2′-[1-[(2R)-3-[[1-(4-chloro-3-fluorophenyl)-2-methylpropan-2-yl]amino]-2-hydroxypropoxy]ethyl]-3-(hydroxymethyl)biphenyl-4-carboxylic acid] | 20
17 | C[C@@H](OC[C@H](O)CNC(C)(C)Cc1ccc(Cl)c(F)c1)c1ccccc1-c1ccc(C(=O)O)c(C(=O)O)c1 [Example 1-107, 2′-[1-[(2R)-3-[[1-(4-chloro-3-fluorophenyl)-2-methylpropan-2-yl]amino]-2-hydroxypropoxy]ethyl]-3-carboxylphenyl-4-carboxylic acid] | 200
18 | Cc1cc(-c2ccccc2[C@@H](C)OC[C@H](O)CNC(C)(C)Cc2ccc(Cl)cc2F)ccc1C(=O)O [Example 1-109] | 15
19 | Cc1cc(-c2ccccc2[C@@H](C)OC[C@H](O)CNC(C)(C)Cc2ccc(Cl)cc2F)ccc1C(=O)O [Example 1-110] | 26
20 | COC(=O)c1ccc(Oc2ccccc2C(C)OC[C@H](O)CNC(C)(C)Cc2ccc3ccccc3c2)cc1 (stereo partly drawn) [Example 2-3, methyl 4-[2-[1-[(2R)-3-[[1-(naphthalen-2-yl)-2-methylpropan-2-yl]amino]-2-hydroxypropoxy]ethyl]phenoxy]benzoate] | 71
21 | CC(OC[C@H](O)CNC(C)(C)Cc1ccc2ccccc2c1)c1ccccc1Oc1ccc(C(=O)O)cc1 (stereo partly drawn) [Example 2-4, 4-[2-[1-[(2R)-3-[[1-(naphthalen-2-yl)-2-methylpropan-2-yl]amino]-2-hydroxypropoxy]ethyl]phenoxy]benzoic acid] | 10
22 | CC(OC[C@H](O)CNC(C)(C)Cc1ccc(Cl)cc1F)c1ccccc1Oc1ccc(C(=O)O)cc1 (stereo partly drawn) [Example 2-6, 4-[2-[1-[(2R)-3-[[1-(4-chloro-2-fluorophenyl)-2-methylpropan-2-yl]amino]-2-hydroxypropoxy]ethyl]phenoxy]benzoic acid] | 22
23 | CC(OC[C@H](O)CNC(C)(C)Cc1ccc2ccccc2c1)c1ccccc1C=Cc1ccc(C(=O)O)cc1 (stereo partly drawn) [Example 2-9, 4-[2-[2-[1-[(2R)-3-[[1-(naphthalen-2-yl)-2-methylpropan-2-yl]amino]-2-hydroxypropoxy]ethyl]phenyl]vinyl]benzoic acid] | 16
24 | CC(OC[C@H](O)CNC(C)(C)Cc1ccc2ccccc2c1)c1ccccc1Sc1cccc(C(=O)O)c1 (stereo partly drawn) [Example 2-10, 3-[2-[1-[(2R)-3-[[1-(naphthalen-2-yl)-2-methylpropan-2-yl]amino]-2-hydroxypropoxy]ethyl]phenylthio]benzoic acid] | 27
